Test results reported in patent publication US6379959B1, “Metalocarboxypeptidase inhibitors and derived molecules used as antitumor agents” (Universitat Autonoma de Barcelona, priority 1996, dated 2002).
Like-named read-outs stand apart in the source and are kept apart here. Each block holds one compound with its values, some of them ahead of it.

Key:
[1] = tested on: human pancreatic adenocarcinoma cell line Capan-1; assay: Apoptosis by DAPI labeling and fluorescence microscope; format: cell-based; details: positive control, 10 μg/mL, 24 h
Protocol: The studies of possible induction of apoptosis by the PCI were done with the human pancreatic adenocarcinoma cell line Capan-1. The detailed procedure that was employed is as follows:
1. 5×10^5 cells were seed in the chambers/slides and were cultured for 3 o 4 days (until the moment in which, through microscope observation, they presented 75% of confluence). The cells were cultured in DMEM+10% FBS.
2. […] A positive control was added, cysplatinum, at a concentration of 10 μg/mL (a drug which induces apoptosis in various tumor cell lines, Borner, M. M., et al. (1995) Cancer Res., 55: 2122-2128. The incubation period was 24 h.
3. The medium was removed after incubation and the chamber was washed with 2 mL of PBS.
5. Cells were fixed with 2 mL of 2% formaldehyde for 20 min at 4° C.
6. The plates were washed again with 2 mL of PBS for 5 min at room temperature.
7. Cell membranes were permeabilized with 0.25% Triton ×100 in PBS for 5 min at 4° C.
8. Washed with PBS for 5 min at room temperature.
9. The cells were labeled with DAPI at a final concentration of 2 μg/mL for 50 min in darkness at room temperature.
10. The preparation was fitted with the fluoroprep medium and it was examined through the fluorescence microscope.
% apoptosis=(number of apoptotic cells/total number of cells)×100

[2] = tested on: human pancreatic adenocarcinoma cell line Panc-1; format: cell-based; details: SFM, 72 h
Protocol: The tests that were carried out growing in free bovine fetal serum medium were very similar to those used in the line Capan-1 described in Section 4.B.2.b. The protocol employed is as follows:
1. A culture plate with 96 wells, in 42 of which 5,000 cells were seed per well. The cells were placed in full medium (RPMI+10%FBS).
2. After 48 h, after the cells had adhered to the surface of the well and they had divided as well, the medium was drained from the wells and to eliminate the rest of the serum, 200 μL of PBS were added to each well.
3. The PBS was removed and 200 μL of RPMI-FBS were added.
4. After 48 h, the medium was removed and the following treatments were applied:
(§1) In 6 wells (control): 200 μL of serum-free medium (SFM) were added.
In 6 wells, 200 μL of SFM plus the indicated concentration of one of the growth factors and wtPCI at a final concentration of 50 μg/mL were added.
In 6 wells, 200 μL of SFM plus the indicated concentration of one of the growth factors and PCIdelYVG at a final concentration of 46 μg/mL were added.
In 6 wells, 200 μL of SFM plus the indicated concentration of one of the growth factors and tail at a final concentration of 6.4 μg/mL were added.
In 6 wells, 200 μL of SFM plus the indicated concentration of one of the growth factors and wtPCI at a final concentration of 50 μg/mL combined with tail at a final concentration of 6.4 μg/mL were added.
In 6 wells, 200 μL of SFM plus the indicated concentration of one of the growth factors and PCIdelYVG at a final concentration of 46 μg/mL combined with tail at a final concentration of 6.4 μg/mL were added.
The cells were kept in an incubator at 37° C., 87% of relative humidity and 10% of CO2.
5. After 72 h, the cell growth per well was evaluated using the method detailed in the protocol of Section 4.B.2.a.

[3] = tested on: human pancreatic adenocarcinoma cell line Capan-1; format: cell-based; details: SFM, 72 h
Protocol: Other kinds of tests were also carried out, the cells growing in serum-free medium as well; these were studies at short periods of time, 72 h, and of competitiveness with a growth factor plus wtPCI, PCIdelYVG or tail. […] The protocol employed was as follows:
1. In a culture plate of 96 wells, in 42 of which 5,000 cells per well were seed. The cells were placed in full medium (DMEM+10%FBS).
2. After 72 h, once the adhesion of the cells to the surface of the well had taken place, as well as their division, the medium was removed from the wells and to eliminate the remainder of the serum, 200 μL of PBS were added to each well.
3. The PBS was removed and 200 μL of DMEM-FBS were added.
4. After 24 h, the medium was removed and the following treatments were applied:
as §1
200 μL of SFM plus the indicated concentration of one of the growth factors and wtPCI were added in 6 wells at a final concentration of 50 μg/mL.
In 6 wells, 200 μL of SFM plus the indicated concentration of one of the growth factors and PCIdelYVG were added at a final concentration of 46 μg/mL. […]
4. Cells were kept in an incubator at 37° C., 87% of relative humidity and 10% of CO2.
5. After 72 h, the cellular growth per well was evaluated using the method detailed in the protocol of Section 4.B.2.a.

[4] = tested on: human pancreatic adenocarcinoma cell line Panc-1; format: cell-based; details: SFM, 72 h; remark: listed apart in the source
[5] = target: T1, carboxypeptidase (Bos taurus, UniProt P00730); assay: Carboxypeptidase inhibiting effect; format: biochemical
T1 sequence (P00730 111-419): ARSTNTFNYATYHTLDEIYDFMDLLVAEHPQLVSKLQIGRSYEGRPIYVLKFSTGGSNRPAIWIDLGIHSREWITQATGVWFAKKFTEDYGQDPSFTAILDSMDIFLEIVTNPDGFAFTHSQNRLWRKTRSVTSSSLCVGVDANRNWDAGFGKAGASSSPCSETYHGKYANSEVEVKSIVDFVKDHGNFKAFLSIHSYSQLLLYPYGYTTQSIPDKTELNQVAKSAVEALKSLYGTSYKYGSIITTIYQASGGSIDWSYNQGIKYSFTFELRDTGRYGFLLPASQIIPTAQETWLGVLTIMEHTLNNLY
Protocol: All the buffers employed in HPLC and FPLC are prepared employing Mono-Q water and are filtered through membranes of 0.22 μm and degassed immediately before use. The HPLC, as well as the FPLC, are done at room temperature. The process of purification is done by determining the global concentration of proteins after each step using the Bradford method; the concentration of recombinant PCI is evaluated by measuring its inhibitory effect of CPA using appropriate blanks; or, in the case of PCI mutants with little or zero carboxypeptidase activity, by ELISA with rabbit polyclonal antibodies against PCI.
To determine whether the inhibiting effect on cellular growth of the PCI is related to its carboxypeptidase inhibiting effect or with its specific knotin topology, tests of cellular inhibition with a mutant form were carried out. Concretely, the deletion of the three C-terminal amino acids was designed resulting in the form PCIdelY37V38G39 (or PCIdelYVG). This form was designed and constructed because it keeps the structure and the topology of wild PCI. This is inferred from the fact that it presents a similar chromatographic behaviour to that of the wild form and that it can be detected by antibodies antiwtPCI. Also by means of computer simulation (by molecular dynamics using the GROMOS programme) it presented a similar behaviour to the wild form after 300 ps of dynamics.

[6] = tested on: human pancreatic adenocarcinoma cell line Capan-1; details: serum-free medium, 16 days
Protocol: Two kinds of tests were carried out; the first one is the treatment of cells of the human pancreatic adenocarcinoma cell line Capan-1 with wtPCI and tail added to the culture medium in absence of serum.
In a culture plate with 96 wells, 5,000 cells were seed per well, in 24 of them. The cells were placed in full medium (DMEM+10%FBS).
In 6 wells (control): 200 μL of serum-free medium (DMEM-FBS) and free of tail were added.
200 μL of serum-free medium with 50 μg/mL of native PCI were added.
In 6 wells, 200 μL of serum-free medium with 0.128 μg of tail/mL were added.
In 6 wells, serum-free medium with 6.4 μg of tail/mL was added.
The medium contained in the wells was changed every 3-4 days. The old medium was sucked out using a Pasteur pipette.
After 16 days, the cell growth per well was evaluated according to the method detailed in the protocol of Section 4.B.2.a.

[7] = tested on: human pancreatic adenocarcinoma cell line Panc-1; assay: Proliferation test with tetrazolium salts, Panc-1 in medium with serum, 10 days; format: cell-based
Protocol: It was performed the same kind of test which had been carried out for the Capan-1 cell line but with Panc-1, another human pancreatic adenocarcinoma cell line. We are referring to a human pancreatic adenocarcinoma ATCC nr. CRL 1469, established by Lieber, M. et al. (1975) In. J. Cancer, 15: 741-747. Of ductal origin, it is not highly differentiated.
As for the Capan-1 cell line, two types of experiments were carried out with and without bovine fetal serum. The protocol followed for the test, growing in RPMI plus bovine fetal serum, was the same as that used with Capan-1 cell line but with small variations, given the difference in the duplication times between the two lines. The tests were carried out with the native PCI (wtPCI) and with the mutant PCI (PCIdelYVG). The protocol is detailed as follows:
1. In a culture plate with 96 wells, 2,000 cells were seed in 30 wells for the tests with wtPCI and in 36 for the tests with PCIdelYVG. From these 30 or 36:
In 6 wells (control), 200 μL of full medium (RPMI+10%FBS) without wtPCI or PCIdelYVG/mL were added. […]
2. The cells were kept in an incubator at 37° C., 87% of relative humidity and 10% of CO2. The old medium was sucked out with a Pasteur pipette. Medium free of wtPCI or PCIdelYVG was added to the control wells and to the others a medium was added with identical concentration of wtPCI or PCIdelYVG.
3. After 10 days, the cell growth was evaluated per well, according to the method detailed in the protocol of Section 4.B.2.a.

[8] = tested on: Panc-1 cells; assay: Internalization studies by means of fluorescence (RITC labeling), Panc-1; format: cell-based, human; details: accumulation around the nucleus
Protocol: In fluorescence studies, the possible internalization of PCI, labeled with a fluorophore, by Capan-1 and Panc-1 cell lines was followed by microscope observation.
In the incorporation studies of the RITC-PCI, the protocol of Billings, P. C. et al. (1989) Carcinogenesis, 10: 687-691, slightly modified, was followed:
1. 200,000 cells of the cell line to be studied were placed in culture chambers/slides and were left there to grow for 48 h.
2. The medium of the cells growing in exponential phase was changed and 20 or 50 μg/mL of RITC-PCI were added to the new medium, keeping it in the medium for a variable incubation time ranging from 1 minute to 4 h inside the incubator.
3. The medium was retired after the incubation and the monolayer of the cells was washed with PBS for 10 min in darkness.
4. The cells were fixed with 350 μl of a solution 50% methanol—50% acetone for 8 min at 4° C. in a dark and humid chamber.
5. The cells were washed again with PBS for 10 min in darkness.
6. The preparations were dried with absorbing paper being very careful not to touch the cells. The preparations were fitted with PBS: Glycerol (1:1) and were sealed with nail polish.
The labeling protocol was exactly the same as that of the wild PCI, as described in Section 4.F.1.b. The studies of incorporation of the labeled mutant were carried out as described in Section 4.F.1.c.

[9] = Insulina 5 mg/mL + 6.4 mg/mL tail
[10] = EGF 10 ng/mL + 46 mg/mL PCIdelYVG
[11] = Insulin 5 mg/mL + 46 mg/mL PCIdelYVG

Compound: N.N.[Cl][Pt][Cl] [cysplatinum, reference compound]
% Apoptosis [1]: 5.19%

Compound: EGF: epidermic growth factor [reference compound]
Growth (Percentage in relation to the average of the controls) ([2]; EGF 10 ng/mL alone): 63.52%
inhibition in relation to the control situation ([2]; EGF alone, in the tested concentration (10 ng/mL)): 36%
Growth (Percentage in relation to the average of the controls) ([3]; EGF 10 ng/mL alone): 106.66%
growth in relation to the control situation ([3]; EGF alone, at the tested concentration (10 ng/mL)): no differences in relation to the control situation

Compound: H-GPYVG-OH [tail, H-Gly-Pro-Tyr-Val-Gly-OH]
Growth (Percentage in relation to the average of the controls) ([4]; EGF 10 ng/mL + 6.4 mg/mL tail): 16.23%
Growth (Percentage in relation to the average of the controls) [4, 9]: 24.84%
carboxypeptidase inhibitory activity [5]: lacks carboxypeptidase inhibitory activity
Growth (Percentage in relation to the average of the controls) ([6]; 0.128 mg/mL tail): 81.95%
Growth (Percentage in relation to the average of the controls) ([6]; 6.4 mg/mL tail): 77%
Growth (Percentage in relation to the average of the controls) ([3]; EGF 10 ng/mL + 6.4 mg/mL tail): 28.33%
Growth (Percentage in relation to the average of the controls) [3, 9]: 52.58%

Compound: IGF-1: growth factor 1 of the insulin type [reference compound]
stimulation in relation to control ([2]; IGF-1 alone (20 ng/mL)): 26%
stimulation in relation to the control ([3]; IGF-1 alone (20 ng/mL)): 58%

Compound: Insulin: growth factor used to stimulate proliferation [reference compound]
Growth (Percentage in relation to the average of the controls) ([2]; Insulin 5 mg/mL alone): 193.47%
stimulation in relation to control ([2]; insulin alone (5 μg/mL)): 93%
Growth (Percentage in relation to the average of the controls) ([3]; Insulin 5 mg/mL alone): 292.86%
stimulation in relation to the control ([3]; insulin alone (5 μg/mL)): 193%

Ki [5]: micromolar level
decrease of the inhibitory capacity ([5]; compared with wild PCI): 3 orders of magnitude
Compound: PCIdelYVG: recombinant PCI mutant with deletion of the three C-terminal amino acids Tyr-Val-Gly (EQHADPICNKPCKTHDDCSGAWFCQACWNSARTCGP; Potato; (1)..(39) Isoform IIa of the potato carboxypeptidase inhibitor)
inhibition of the growth ([7]; 46 μg/mL concentration): 15%
Growth (Percentage in relation to the average of the controls) ([7]; 0.092 mg/mL PCIdelYVG, RPMI+10%FBS): 112.92%
Growth (Percentage in relation to the average of the controls) ([7]; 0.92 mg/mL PCIdelYVG): 105.43%
Growth (Percentage in relation to the average of the controls) ([7]; 23 mg/mL PCIdelYVG): 94.85%
Growth (Percentage in relation to the average of the controls) ([7]; 46 mg/mL PCIdelYVG): 85.51%
stimulus of the growth ([7]; concentration 0.092 μg/mL): 13%
Growth (Percentage in relation to the average of the controls) [4, 10]: 5.53%
Growth (Percentage in relation to the average of the controls) [4, 11]: 21.41%
incorporation of RITC-labeled mutant by the cells [8]: is incorporated by the cells
Growth (Percentage in relation to the average of the controls) [3, 10]: 40.83%
Growth (Percentage in relation to the average of the controls) [3, 11]: 44.60%
